Consider eight molecules from patent US20160298129A1, “ALS INHIBITOR HERBICIDE TOLERANT MUTANT PLANTS” (BAYER CROPSCIENCE NV, priority 2013, published 2016).

Numbering of substitutions follows the chain as printed. Names and notes keep the numbering of the source.

One data set has as its target AHAS P197S (Arabidopsis thaliana, UniProt P17597, E575Q/P197S). It counts as biochemical. On the procedure: (§1) Bacteria are grown at 37° C. in LB-medium containing 100 mg/l carbenicillin and 25 mg/l canamycin, induced with 1 mM isopropyl-β-D-thiogalactopyranoside at an OD600 of 0.6, cultivated for 16 hours at 18° C. and harvested by, e.g., centrifugation. Bacterial pellets are resuspended in 100 mM sodium phosphate buffer pH 7.0 containing 0.1 mM thiamine-pyrophosphate, 1 mM MgCl2, and 1 μM FAD at a concentration of 1 gram wet weight per 25 ml of buffer and disrupted by, e.g., sonification. The crude protein extract obtained after centrifugation is used for ALS activity measurements.
(§2) ALS protein can be extracted from leaves or tissue cultures, such as B. napus or B. juncea leaves, or B. napus or B. juncea tissue cultures as described by Ray (Plant Physiol, 1984, 75:827-831). An ALS assays can be carried out in 96-well microtiter plates using a modification of the procedure described by Ray (1984): The reaction mixture contains 20 mM potassium phosphate buffer pH 7.0, 20 mM sodium pyruvate, 0.45 mM thiamine-pyrophosphate, 0.45 mM MgCl2, 9 μM FAD. ALS enzyme and various concentrations of ALS inhibitors can be mixed in a final volume of 90 μl Assays can be initiated by adding enzyme and the assays can be terminated after 75 min incubation at 30° C. by the addition of 40 μl 0.5 M H2SO4.

For the next data set, the target named is AHAS W574L (Arabidopsis thaliana, UniProt P17597, E575Q/W574L). It counts as biochemical. On the procedure: as §1, §2
Another data set addresses AHAS D376E (Arabidopsis thaliana, UniProt P17597, D376E/E575Q). Kind of data set: biochemical. The following applies: for Resistance Factor: AHAS D376E. On the procedure: as §1, §2
The target of another data set is AHAS D376E-W574L (Arabidopsis thaliana, UniProt P17597, D376E/E575Q/W574L). The data set is described as follows: biochemical. The following applies: for Resistance Factor: AHAS D376E-W574L. On the procedure:
as §1, §2

The target in a further data set is AHAS P197S-D376E (Arabidopsis thaliana, UniProt P17597, D376E/E575Q/P197S). The data set is described as follows: biochemical. The following applies: for Resistance Factor: AHAS P197S-D376E. How it is done: as §1, §2
A further data set has as its target AHAS P197S-D376E-W574L (Arabidopsis thaliana, UniProt P17597, D376E/E575Q/P197S/W574L). Kind of data set: biochemical. The following applies: for Resistance Factor: AHAS P197S-D376E-W574L. How it is done:
as §1, §2

A further data set concerns the target AHAS P197S-W574L (Arabidopsis thaliana, UniProt P17597, E575Q/P197S/W574L). Kind of data set: biochemical. The following applies: for Resistance Factor: AHAS P197S-W574L. On the procedure: as §1, §2
Data set [1] relates to wild-type (WT) oilseed rape. Kind of data set: Field herbicide tolerance, visible phytotoxicity. It counts as in vivo, Brassica napus. The following applies: gai/ha: imazamox 40, bispyribac-sodium 50, propoxycarbazone-sodium 70, mesosulfuron-methyl 60, pyroxsulam 12.5 + cloquintocet-mexyl 37.5, each + rapeseed oil methylated 366.5.
Data set [2] has as its system oilseed rape homozygous for HETO133 and HETO134 (133-134). Kind of data set: Field herbicide tolerance, visible phytotoxicity (ALS I W574L, ALS III W574L). The following applies: gai/ha: imazamox 40, bispyribac-sodium 50, propoxycarbazone-sodium 70, mesosulfuron-methyl 60, pyroxsulam 12.5 + cloquintocet-mexyl 37.5, each + rapeseed oil methylated 366.5. It counts as in vivo, Brassica napus. The source says:
(§3) Seeds of spring oilseed rape homozygous for HETO139 and HETO134 were sown in a field according to typical practical agricultural methods together with seeds homozygous for HETO134 and HETO133 (comprising a W574L mutation on ALS III, which were obtained in the same way as HETO134), and with seeds homozygous for HETO134 and HETO132 (comprising a P197S and a W574L mutation on ALS III, which were obtained in essentially the same way as HETO139). Several ALS inhibitor herbicides were applied to the oilseed rape plants by using specific spray equipment for small plot applications.

Data set [3] has as its system oilseed rape homozygous for HETO132 and HETO134 (132-134). The data set is described as follows: Field herbicide tolerance, visible phytotoxicity (ALS I W574L, ALS III P197S-W574L). The following applies: gai/ha: imazamox 40, bispyribac-sodium 50, propoxycarbazone-sodium 70, mesosulfuron-methyl 60, pyroxsulam 12.5 + cloquintocet-mexyl 37.5, each + rapeseed oil methylated 366.5. It counts as in vivo, Brassica napus.
From the text: as §3

For data set [4], the system named is oilseed rape homozygous for HETO139 and HETO134 (139-134). Kind of data set: Field herbicide tolerance, visible phytotoxicity (ALS I W574L, ALS III P197S-D376E). The following applies: gai/ha: imazamox 40, bispyribac-sodium 50, propoxycarbazone-sodium 70, mesosulfuron-methyl 60, pyroxsulam 12.5 + cloquintocet-mexyl 37.5, each + rapeseed oil methylated 366.5. The class given is in vivo, Brassica napus.
From the text: as §3

A further data set has as its target AHAS WT (Arabidopsis thaliana, UniProt P17597). Kind of data set: biochemical. How it is done:
as §1, §2

Another data set deals with AHAS enzymatic activity. The data set is described as follows: Kinetic parameters of enzymatic activity of AHAS mutants. The class given is biochemical. How it is done: The ALS inhibitor sensitivity and kinetic parameters of AHAS proteins comprising the P197S mutation, the W574L mutation, the D376E mutation, and combinations thereof in one protein, were determined essentially as described in WO 2013/127766.

Chain of AHAS P197S-D376E (P17597 56-670 P197S/D376E/E575Q): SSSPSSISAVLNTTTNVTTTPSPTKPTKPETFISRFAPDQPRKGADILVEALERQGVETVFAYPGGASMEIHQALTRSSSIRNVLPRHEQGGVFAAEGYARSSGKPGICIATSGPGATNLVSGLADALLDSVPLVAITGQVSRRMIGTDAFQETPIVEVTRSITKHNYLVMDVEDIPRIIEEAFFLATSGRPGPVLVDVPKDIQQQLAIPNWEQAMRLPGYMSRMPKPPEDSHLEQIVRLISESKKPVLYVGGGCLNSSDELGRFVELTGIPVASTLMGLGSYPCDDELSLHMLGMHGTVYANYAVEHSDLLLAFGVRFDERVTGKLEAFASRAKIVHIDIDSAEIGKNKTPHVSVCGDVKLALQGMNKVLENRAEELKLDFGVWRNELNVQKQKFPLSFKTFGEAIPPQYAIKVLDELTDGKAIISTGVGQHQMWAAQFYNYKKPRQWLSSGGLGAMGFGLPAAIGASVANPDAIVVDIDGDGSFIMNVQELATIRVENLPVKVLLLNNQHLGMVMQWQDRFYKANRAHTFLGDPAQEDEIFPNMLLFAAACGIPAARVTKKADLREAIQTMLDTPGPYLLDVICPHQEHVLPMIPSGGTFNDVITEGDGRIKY
Chain of AHAS P197S-D376E-W574L (P17597 56-670 P197S/D376E/W574L/E575Q): as the sequence (P17597 56-670 P197S/D376E/E575Q) above, with W519L counted along it
Chain of AHAS W574L (P17597 56-670 W574L/E575Q): as the sequence (P17597 56-670 P197S/D376E/E575Q) above, with S142P, E321D, W519L counted along it
Chain of AHAS P197S (P17597 56-670 P197S/E575Q): as the sequence (P17597 56-670 P197S/D376E/E575Q) above, with E321D counted along it
Chain of AHAS WT (P17597 56-670 E575Q): as the sequence (P17597 56-670 P197S/D376E/E575Q) above, with S142P, E321D counted along it
Chain of AHAS D376E-W574L (P17597 56-670 D376E/W574L/E575Q): as the sequence (P17597 56-670 P197S/D376E/E575Q) above, with S142P, W519L counted along it
Chain of AHAS P197S-W574L (P17597 56-670 P197S/W574L/E575Q): as the sequence (P17597 56-670 P197S/D376E/E575Q) above, with E321D, W519L counted along it

For orientation: IC50 means the concentration that gives 50% inhibition. The low end stands for higher potency, the high end for lower potency. On to `COc1cc(OC)nc(Oc2cccc(Oc3nc(OC)cc(OC)n3)c2C(=O)O)n1` [Bispyribac-sodium, bispyribac-sodium], for which the “Resistance Factor” value at AHAS P197S is 4; at AHAS W574L, 447; on AHAS D376E, 56; at AHAS D376E-W574L, more than 5623; on AHAS P197S-D376E, 447; on AHAS P197S-D376E-W574L, more than 5623. Also, the “Resistance Factor” value on AHAS P197S-W574L is on record as more than 5623. Moreover, the concentration for half-maximal inhibition (IC50) at AHAS D376E is 1 µM; on AHAS D376E-W574L, more than 100 µM; against AHAS P197S-D376E it was 7.94 µM; on AHAS P197S-D376E-W574L, more than 100 µM; against AHAS P197S-W574L, more than 100 µM. In addition, the Percentage phytotoxicity in data set [1] (9 DAA) is on record as 76.7%; in [1] (16 DAA), 98.3%; in [1] (24 DAA) it was 100%; in data set [2] (9 DAA), 56.7%; in [2] (16 DAA), 88.3%; in data set [2] (24 DAA), 92.7%. For the same molecule, the Percentage phytotoxicity in data set [3] (9 DAA) was determined as 46.7%; in [3] (16 DAA), 71.7%; in [3] (24 DAA), 43.3%; in [4] (9 DAA), 40%; in data set [4] (16 DAA) it was 65%; in [4] (24 DAA) it was 43.3%.
Regarding `COCc1cnc(C2=NC(C)(C(C)C)C(=O)N2)c(C(=O)O)c1` (stereo not drawn) [Imazamox, imazamox], the “Resistance Factor” value is 1 on AHAS P197S; more than 22 at AHAS W574L; 11 on AHAS D376E; more than 22 on AHAS D376E-W574L; more than 22 at AHAS P197S-D376E; more than 22 on AHAS P197S-D376E-W574L. Further, at AHAS P197S-W574L, the “Resistance Factor” value was more than 22. For the same molecule, the IC50 was 50.1 µM at AHAS D376E; more than 100 µM against AHAS D376E-W574L; more than 100 µM on AHAS P197S-D376E; more than 100 µM against AHAS P197S-D376E-W574L; more than 100 µM against AHAS P197S-W574L. Besides, the Percentage phytotoxicity in [1] (9 DAA) is 73.3%; in [1] (16 DAA), 98%; in data set [1] (24 DAA), 99%; in [2] (9 DAA), 6.7%; in data set [2] (16 DAA) it was 10%; in data set [2] (24 DAA), 0%. Besides, the Percentage phytotoxicity came to 6.7% in [3] (9 DAA); 8.7% in data set [3] (16 DAA); 0% in [3] (24 DAA); 13.3% in [4] (9 DAA); 13.3% in data set [4] (16 DAA); 0% in data set [4] (24 DAA).
As to `COc1cc(OC)nc(NC(=O)NS(=O)(=O)c2ncccc2C(=O)N(C)C)n1` [Nicosulfuron, nicosulfuron], the “Resistance Factor” value on AHAS P197S is given as 6; at AHAS W574L, more than 607; on AHAS D376E, more than 607; at AHAS D376E-W574L it was more than 607; on AHAS P197S-D376E, more than 607; at AHAS P197S-D376E-W574L it was more than 607. For the same molecule, the “Resistance Factor” value on AHAS P197S-W574L is given as more than 607. The IC50 against AHAS D376E was more than 100 µM; on AHAS D376E-W574L, more than 100 µM; on AHAS P197S-D376E it was more than 100 µM; at AHAS P197S-D376E-W574L it was more than 100 µM; at AHAS P197S-W574L, more than 100 µM; against AHAS WT, 0.158 µM.
On to `CCS(=O)(=O)c1cccnc1S(=O)(=O)NC(=O)Nc1nc(OC)cc(OC)n1` [Rimsulfuron, rimsulfuron], for which the “Resistance Factor” value at AHAS P197S was 18; on AHAS W574L, 447; on AHAS D376E, 56; on AHAS D376E-W574L, more than 4466; on AHAS P197S-D376E, more than 4466; at AHAS P197S-D376E-W574L, more than 4466. In addition, the “Resistance Factor” value on AHAS P197S-W574L was more than 4466. The IC50 at AHAS D376E is 1.26 µM; at AHAS D376E-W574L it was more than 100 µM; on AHAS P197S-D376E, more than 100 µM; against AHAS P197S-D376E-W574L, more than 100 µM; on AHAS P197S-W574L, more than 100 µM; at AHAS WT it was 0.02 µM.
On to `CCS(=O)(=O)c1nc2ccccn2c1S(=O)(=O)NC(=O)Nc1nc(OC)cc(OC)n1` [Sulfosulfuron, sulfosulfuron], for which the “Resistance Factor” value at AHAS P197S is listed as 1848; on AHAS W574L, more than 4641; at AHAS D376E, 1166; at AHAS D376E-W574L it was more than 4641; at AHAS P197S-D376E, more than 4641; at AHAS P197S-D376E-W574L it was more than 4641. Also, on AHAS P197S-W574L, the “Resistance Factor” value was more than 4641. For the same molecule, the half-maximal inhibitory concentration (IC50) against AHAS D376E was 25.1 µM; at AHAS D376E-W574L, more than 100 µM; at AHAS P197S-D376E it was more than 100 µM; against AHAS P197S-D376E-W574L, more than 100 µM; on AHAS P197S-W574L it was more than 100 µM; against AHAS WT, 0.02 µM.

B1: D376E: AHAS protein with glutamic acid instead of aspartic acid at position 376 of SEQ ID NO: 10 (protein, listed as Arabidopsis thaliana)
chain: MAAATTTTTTSSSISFSTKPSPSSSKSPLPISRFSLPFSLNPNKSSSSSRRRGIKSSSPSSISAVLNTTTNVTTTPSPTKPTKPETFISRFAPDQPRKGADILVEALERQGVETVFAYPGGASMEIHQALTRSSSIRNVLPRHEQGGVFAAEGYARSSGKPGICIATSGPGATNLVSGLADALLDSVPLVAITGQVPRRMIGTDAFQETPIVEVTRSITKHNYLVMDVEDIPRIIEEAFFLATSGRPGPVLVDVPKDIQQQLAIPNWEQAMRLPGYMSRMPKPPEDSHLEQIVRLISESKKPVLYVGGGCLNSSDELGRFVELTGIPVASTLMGLGSYPCDDELSLHMLGMHGTVYANYAVEHSDLLLAFGVRFDERVTGKLEAFASRAKIVHIDIDSAEIGKNKTPHVSVCGDVKLALQGMNKVLENRAEELKLDFGVWRNELNVQKQKFPLSFKTFGEAIPPQYAIKVLDELTDGKAIISTGVGQHQMWAAQFYNYKKPRQWLSSGGLGAMGFGLPAAIGASVANPDAIVVDIDGDGSFIMNVQELATIRVENLPVKVLLLNNQHLGMVMQWQDRFYKANRAHTFLGDPAQEDEIFPNMLLFAAACGIPAARVTKKADLREAIQTMLDTPGPYLLDVICPHQEHVLPMIPSGGTFNDVITEGDGRIKY
As usually defined, the Km is the substrate concentration at which the rate is half of its maximum. As for B1, in the data set on AHAS enzymatic activity, the Michaelis-Menten constant (Km) came out at 1.4 mM, the Vmax is 103.0 deltaOD550/min mg protein and the “relative Vmax” value is 2.7.

B2: W574L: AHAS protein with leucine instead of tryptophan at position 574 of SEQ ID NO: 10 (protein, listed as Arabidopsis thaliana)
chain: B1 chain with E376D, W574L
With B2, in the data set on AHAS enzymatic activity, the Km is 7 mM, the Vmax is given as 54.4 deltaOD550/min mg protein and the “relative Vmax” value is 1.4.

B3: P197S: AHAS protein with serine instead of proline at position 197 of SEQ ID NO: 10 (protein, listed as Arabidopsis thaliana)
chain: B1 chain with P197S, E376D
Take B3: in the data set on AHAS enzymatic activity, the Km stood at 5.5 mM, the Vmax is reported as 50.0 deltaOD550/min mg protein and the “relative Vmax” value worked out at 1.3.
